Results taken from patent US20030180355A1, “Combination therapy for hypertension” (priority 2001, published 2003).

Experiments:
[1] = test system: conscious renal hypertensive dogs; experiment: Lercanidipine and enalapril in renal hypertensive dogs (two-kidney, two clip); type: in vivo, beagle dogs
Method: Male beagle dogs, 10-12 months old and weighing between 10-11 kg, were used. All dogs were trained for several weeks, to comply unstressfully to the test environment. Chronic sustained hypertension was induced in 4 dogs by bilateral renal artery constriction, according to the Goldblatt method “two-kidney, two clip hypertension”. Briefly, under sodium pentobarbital anaesthesia (35 mg/kg i.v.) during two different surgical interventions 15 days apart from each other, in sterile conditions, both renal arteries were clipped with original renal silver clips and narrowed by about 60-70%. After two months from the last intervention, an experimental renal hypertension was produced and the animals were used for the implantation of catheter.
Under sodium pentobarbital anaesthesia (35 mg/kg i.v.), in sterile conditions, the dogs were catheterized by inserting a sensor tipped catheter (Mikro-Tip) into the ascending aorta through the right femoral artery. The catheter was subcutaneously exteriorized at the back of the neck.
After a week recovery time from surgery, the animals were placed in a dog restrained unit, composed by a frame and a dog sling hammock, and connected to the pressure transducers in order to monitor the arterial blood pressure.
All the animals were alternatively treated with vehicle, lercanidipine, enalapril and the combination of lercanidipine and enalapril. The drugs were administered by oral gavage in a volume of 1 ml/kg at the following dosages:
(2) lercanidipine (0.5 mg/kg)
(4) lercanidipine […] enalapril (0.5 mg/kg +3 mg/kg)
Blood pressure (systolic and diastolic) was monitored up to 6 h after the administration. Statistical analysis was performed from time 0 to time 360 min. To evaluate the statistical differences among the treatments, data were analyzed using a three-way ANOVA with repeated measures on factor time and pre-planned multiple comparisons. Statistical analysis was performed by means of GLM (general linear model procedure) with SAS software version 6.12.

isolated rat aorta = conditions: in vitro; even after the drug has been removed for 6 hours; cited from earlier work
[2] = lercanidipine 0.5 mg/kg oral, 15 min
[3] = lercanidipine 0.5 mg/kg oral, 30 min
[4] = lercanidipine 0.5 mg/kg oral, 45 min
[5] = lercanidipine 0.5 mg/kg oral, 60 min
[6] = lercanidipine 0.5 mg/kg oral, 90 min
[7] = lercanidipine 0.5 mg/kg oral, 120 min
[8] = lercanidipine 0.5 mg/kg oral, 150 min
[9] = lercanidipine 0.5 mg/kg oral, 180 min
[10] = lercanidipine 0.5 mg/kg oral, 240 min
[11] = lercanidipine 0.5 mg/kg oral, 360 min
[12] = lercanidipine 0.5 mg/kg oral, Basal
[13] = enalapril 3 mg/kg oral, 120 min
[14] = enalapril 3 mg/kg oral, 150 min
[15] = enalapril 3 mg/kg oral, 180 min
[16] = enalapril 3 mg/kg oral, 240 min
[17] = enalapril 3 mg/kg oral, 360 min

Q: Which results are given for COC(=O)C1=C(C)NC(C)=C(C(=O)OC(C)(C)CN(C)CCC(c2ccccc2)c2ccccc2)C1c1cccc([N+](=O)[O-])c1 (stereo not drawn) [lercanidipine, methyl 1,1,N-trimethyl-N-(3,3-diphenylpropyl)-2-aminoethyl 1,4-dihydro-2,6-dimethyl-4-(3-nitrophenyl)pyridine-3,5-dicarboxylate]?
A: DBP (diastolic blood pressure) [1, 2]: 107.0 ± 5.8 mmHg; SBP (systolic blood pressure) [1, 2]: 152.5 ± 6.6 mmHg; DBP (diastolic blood pressure) [1, 3]: 95.3 ± 3.6 c mmHg; SBP (systolic blood pressure) [1, 3]: 142.5 ± 4.8 b mmHg; DBP (diastolic blood pressure) [1, 4]: 89.0 ± 4.8 c mmHg; SBP (systolic blood pressure) [1, 4]: 138.3 ± 5.1 c mmHg; DBP (diastolic blood pressure) [1, 5]: 87.5 ± 6.3 c mmHg; SBP (systolic blood pressure) [1, 5]: 142.3 ± 7.4 a mmHg; DBP (diastolic blood pressure) [1, 6]: 87.3 ± 5.3 c mmHg; SBP (systolic blood pressure) [1, 6]: 138.3 ± 5.7 c mmHg; DBP (diastolic blood pressure) [1, 7]: 93.0 ± 5.6 c mmHg; SBP (systolic blood pressure) [1, 7]: 140.5 ± 5.9 b mmHg; DBP (diastolic blood pressure) [1, 8]: 94.0 ± 7.2 c mmHg; SBP (systolic blood pressure) [1, 8]: 139.3 ± 10.1 c mmHg; DBP (diastolic blood pressure) [1, 9]: 96.8 ± 5.1 c mmHg; SBP (systolic blood pressure) [1, 9]: 141.0 ± 7.2 b mmHg; DBP (diastolic blood pressure) [1, 10]: 104.0 ± 5.0 a mmHg; SBP (systolic blood pressure) [1, 10]: 144.8 ± 6.8 a mmHg; DBP (diastolic blood pressure) [1, 11]: 108.0 ± 3.5 mmHg; SBP (systolic blood pressure) [1, 11]: 150.0 ± 6.8 mmHg; DBP (diastolic blood pressure) [1, 12]: 117.5 ± 5.2 mmHg; SBP (systolic blood pressure) [1, 12]: 161.3 ± 3.8 mmHg; isolated rat aorta response to high K+ (isolated rat aorta): attenuated

Q: For CCOC(=O)[C@H](CCc1ccccc1)N[C@@H](C)C(=O)N1CCC[C@H]1C(=O)O [enalapril, (S)-1-[N-1-(ethoxycarbonyl)-3-phenylpropyl]-L-alanyl-L-proline], which “DBP (diastolic blood pressure)” value ([1]; enalapril 3 mg/kg oral, 15 min) is on record?
A: The value was 114.5 ± 4.9 mmHg.

Q: And the “SBP (systolic blood pressure)” value ([1]; enalapril 3 mg/kg oral, 15 min)?
A: Its value is 162.8 ± 4.8 mmHg.

Q: And the “DBP (diastolic blood pressure)” value ([1]; enalapril 3 mg/kg oral, 30 min)?
A: Its value is 114.0 ± 4.7 mmHg.

Q: What about the “SBP (systolic blood pressure)” value ([1]; enalapril 3 mg/kg oral, 30 min) of the same compound?
A: The value was 160.3 ± 4.1 mmHg.

Q: What about the “DBP (diastolic blood pressure)” value ([1]; enalapril 3 mg/kg oral, 45 min) of the same compound?
A: Its value is 110.3 ± 4.7 mmHg.

Q: What about the “SBP (systolic blood pressure)” value ([1]; enalapril 3 mg/kg oral, 45 min) of the same compound?
A: Its value is 158.0 ± 5.6 mmHg.

Q: What about the “DBP (diastolic blood pressure)” value ([1]; enalapril 3 mg/kg oral, 60 min) of the same compound?
A: Its value is 105.3 ± 5.6 a mmHg.

Q: And the “SBP (systolic blood pressure)” value ([1]; enalapril 3 mg/kg oral, 60 min)?
A: The value was 158.0 ± 6.4 mmHg.

Q: And the “DBP (diastolic blood pressure)” value ([1]; enalapril 3 mg/kg oral, 90 min)?
A: The value was 107.5 ± 3.2 mmHg.

Q: And the “SBP (systolic blood pressure)” value ([1]; enalapril 3 mg/kg oral, 90 min)?
A: Its value is 159.0 ± 5.8 mmHg.

Q: And the “DBP (diastolic blood pressure)” value [1, 13]?
A: Its value is 105.0 ± 5.3 b mmHg.

Q: And the “SBP (systolic blood pressure)” value [1, 13]?
A: Its value is 153.5 ± 7.5 mmHg.

Q: And the “DBP (diastolic blood pressure)” value [1, 14]?
A: The value was 108.3 ± 4.5 a mmHg.

Q: What about the “SBP (systolic blood pressure)” value [1, 14] of the same compound?
A: Its value is 158.5 ± 5.7 mmHg.

Q: And the “DBP (diastolic blood pressure)” value [1, 15]?
A: The value was 110.5 ± 3.6 mmHg.

Q: What about the “SBP (systolic blood pressure)” value [1, 15] of the same compound?
A: Its value is 158.8 ± 5.5 mmHg.

Q: What about the “DBP (diastolic blood pressure)” value [1, 16] of the same compound?
A: Its value is 116.0 ± 3.3 mmHg.

Q: And the “SBP (systolic blood pressure)” value [1, 16]?
A: Its value is 161.3 ± 7.2 mmHg.

Q: And the “DBP (diastolic blood pressure)” value [1, 17]?
A: Its value is 111.8 ± 4.3 mmHg.

Q: What about the “SBP (systolic blood pressure)” value [1, 17] of the same compound?
A: Its value is 158.8 ± 5.9 mmHg.

Q: What about the “DBP (diastolic blood pressure)” value ([1]; enalapril 3 mg/kg oral, Basal) of the same compound?
A: Its value is 120.0 ± 4.2 mmHg.

Q: What about the “SBP (systolic blood pressure)” value ([1]; enalapril 3 mg/kg oral, Basal) of the same compound?
A: Its value is 164.8 ± 3.5 mmHg.
